Measurements taken from ChEMBL document CHEMBL2396528, “Synthesis of new conjugated coumarin-benzimidazole hybrids and their anticancer activity” (2013).
Calls of active or inactive are those of the source. The rule behind the calls is not given here.

Legend:
Assay type in all cases: functional
[1] = test system: MDA-MB-468; experiment: Cytotoxicity against human MDA-MB-468 cells assessed as growth inhibition at 10 uM after 48 hrs by SRB assay relative to control; conditions: MDA-MB-468, 48 h, read-out: GI
[2] = test system: MDA-MB-231; experiment: Cytotoxicity against human MDA-MB-231 cells assessed as growth inhibition at 10 uM after 48 hrs by SRB assay relative to control; conditions: MDA-MB-231, 48 h, read-out: GI
[3] = test system: DU-145; experiment: Cytotoxicity against human DU145 cells assessed as growth inhibition at 10 uM after 48 hrs by SRB assay relative to control; conditions: DU-145, 48 h, read-out: GI
[4] = test system: ACHN; experiment: Cytotoxicity against human ACHN cells assessed as growth inhibition at 10 uM after 48 hrs by SRB assay relative to control; conditions: read-out: GI
[5] = test system: A498; experiment: Cytotoxicity against human A498 cells assessed as growth inhibition at 10 uM after 48 hrs by SRB assay relative to control; conditions: for inhibition of growth at 10 µM: A498, 48 h, read-out: GI
[6] = test system: SK-MEL-5; experiment: Cytotoxicity against human SK-MEL-5 cells assessed as growth inhibition at 10 uM after 48 hrs by SRB assay relative to control; conditions: SK-MEL-5, 48 h, read-out: GI
[7] = test system: M14; experiment: Cytotoxicity against human M14 cells assessed as growth inhibition at 10 uM after 48 hrs by SRB assay relative to control; conditions: M14, 48 h, read-out: GI
[8] = test system: LOX IMVI; experiment: Cytotoxicity against human LOXIMVI cells assessed as growth inhibition at 10 uM after 48 hrs by SRB assay relative to control; conditions: read-out: GI
[9] = test system: SF-295; experiment: Cytotoxicity against human SF295 cells assessed as growth inhibition at 10 uM after 48 hrs by SRB assay relative to control; conditions: SF-295, 48 h, read-out: GI
[10] = test system: HCT-116; experiment: Cytotoxicity against human HCT116 cells assessed as growth inhibition at 10 uM after 48 hrs by SRB assay relative to control; conditions: HCT-116, 48 h, read-out: GI
[11] = test system: NCI-H322M; experiment: Cytotoxicity against human NCI-H322M cells assessed as growth inhibition at 10 uM after 48 hrs by SRB assay relative to control; conditions: read-out: GI
[12] = test system: HOP-62; experiment: Cytotoxicity against human HOP62 cells assessed as growth inhibition at 10 uM after 48 hrs by SRB assay relative to control; conditions: HOP-62, 48 h, read-out: GI
[13] = test system: HOP-92; experiment: Cytotoxicity against human HOP92 cells assessed as growth inhibition at 10 uM after 48 hrs by SRB assay relative to control; conditions: HOP-92, 48 h, read-out: GI
[14] = test system: RPMI-8226; experiment: Cytotoxicity against human RPMI8226 cells assessed as growth inhibition at 10 uM after 48 hrs by SRB assay relative to control; conditions: RPMI-8226, 48 h, read-out: GI
[15] = test system: SR; experiment: Cytotoxicity against human SR cells assessed as growth inhibition at 10 uM after 48 hrs by SRB assay relative to control; conditions: read-out: GI
[16] = test system: CCRF-CEM; experiment: Cytotoxicity against human CCRF-CEM cells assessed as growth inhibition at 10 uM after 48 hrs by SRB assay relative to control; conditions: read-out: GI

Compound | inhibition of growth at 10 µM [1] [%] | inhibition of growth at 10 µM [2] [%] | inhibition of growth at 10 µM [3] [%] | inhibition of growth at 10 µM [4] [%] | inhibition of growth at 10 µM [5] [%] | inhibition of growth at 10 µM [6] [%] | inhibition of growth at 10 µM [7] [%] | inhibition of growth at 10 µM [8] [%] | inhibition of growth at 10 µM [9] [%] | inhibition of growth at 10 µM [10] [%] | inhibition of growth at 10 µM [11] [%] | inhibition of growth at 10 µM [12] [%] | inhibition of growth at 10 µM [13] [%] | inhibition of growth at 10 µM [14] [%] | inhibition of growth at 10 µM [15] [%] | inhibition of growth at 10 µM [16] [%] | growth inhibition (GI) [5]
O=c1oc2cc(NCCO)ccc2cc1-c1nc2ccccc2[nH]1 | 48.4 | 58.9 | < 20 | < 20 | < 20 | 35.8 | 25.4 | 54.3 | 24.5 | 62.2 | 29.7 | 24.8 | < 20 | 46.6 | < 20 | 72.5 | –
O=c1oc2cc(Br)ccc2cc1-c1nc2ccccc2[nH]1 | < 20 | 26 | 23.6 | < 20 | < 20 | < 20 | < 20 | < 20 | < 20 | < 20 | < 20 | < 20 | 20.1 | < 20 | 21.5 | < 20 | –
CN1CCN(c2ccc3cc(-c4nc5ccccc5[nH]4)c(=O)oc3c2)CC1 | 31.7 | < 20 | < 20 | < 20 | < 20 | < 20 | < 20 | < 20 | < 20 | < 20 | < 20 | < 20 | 41.1 | 35.4 | < 20 | 26.5 | –
NCCNc1ccc2cc(-c3nc4ccccc4[nH]3)c(=O)oc2c1 | < 20 | 34 | < 20 | < 20 | < 20 | < 20 | < 20 | < 20 | < 20 | < 20 | < 20 | < 20 | < 20 | – | < 20 | < 20 | –
O=c1oc2cc(NCCN3CCOCC3)ccc2cc1-c1nc2ccccc2[nH]1 | < 20 | < 20 | < 20 | < 20 | < 20 | < 20 | < 20 | < 20 | < 20 | < 20 | < 20 | < 20 | 23.3 | < 20 | – | < 20 | –
O=c1[nH]cc(F)c(=O)[nH]1 [FLUOROURACIL] | – | 78.1 | 35.5 | 39.3 | – | – | – | 30.4 | 69 | 17.8 | 59.5 | 47.8 | 50.6 | 41.4 | 24.8 | 57.1 | Active
O=c1oc2cc(N3CCOCC3)ccc2cc1-c1nc2ccccc2[nH]1 | < 20 | < 20 | < 20 | < 20 | < 20 | < 20 | < 20 | < 20 | < 20 | < 20 | < 20 | < 20 | 20.7 | < 20 | < 20 | < 20 | –
